In the assay the target is T1, LHRH (Rattus norvegicus, UniProt P30969).
T1 construct: endogenous in cells; host or cells: rat pituitary cells (own knowledge of the cited Haviv 1989 method)
T1 sequence (P30969 1-327): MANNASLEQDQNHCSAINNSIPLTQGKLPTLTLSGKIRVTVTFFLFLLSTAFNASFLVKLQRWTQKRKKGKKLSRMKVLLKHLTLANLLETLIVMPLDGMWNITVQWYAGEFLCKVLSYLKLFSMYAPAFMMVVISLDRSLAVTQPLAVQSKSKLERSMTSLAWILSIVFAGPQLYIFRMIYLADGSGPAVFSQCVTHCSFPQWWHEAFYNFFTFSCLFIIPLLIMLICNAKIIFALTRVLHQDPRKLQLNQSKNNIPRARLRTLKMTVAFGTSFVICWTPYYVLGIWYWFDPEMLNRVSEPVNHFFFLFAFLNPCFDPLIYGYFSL
In words: in vitro test for LHRH antagonist potency (pA2). The class given is cell-based. The conditions noted are these: negative logarithm of the antagonist concentration required to shift the response curve produced by the agonist leuprolide to two-fold higher concentration. In a few lines: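 Antagonism read against the agonist leuprolide on rat LHRH receptor; value is pA2, the −log of antagonist concentration that doubles the agonist concentration needed for the same response.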

Non-standard residues stand in square brackets, D forms with d. Residues, ends and D or L forms follow the SMILES beside them. *: point of attachment. Shikimoyl = O=C(C1=C[C@@H](O)[C@@H](O)[C@H](O)C1)*; Tetrahydrofuroyl(2R) = O=C([C@H]1CCCO1)*; dPhe(4-Cl) = N[C@H](Cc1ccc(Cl)cc1)C(=O)O; d2Nal = N[C@H](Cc1ccc2ccccc2c1)C(=O)O; Acetyl(3-pyridyl) = O=C(Cc1cccnc1)*; Lys(iPr) = CC(C)NCCCC[C@H](N)C(=O)O; NMeY = CN[C@@H](Cc1ccc(O)cc1)C(=O)O; Thiophene2carbonyl = O=C(c1cccs1)*; d3Pal = N[C@H](Cc1cccnc1)C(=O)O; Isonicotinoyl = O=C(c1ccncc1)*; Nicotinoyl = O=C(c1cccnc1)*; Picolinoyl = O=C(c1ccccn1)*; 2Furoyl = O=C(c1ccco1)*; X1 = O=C([C@@H]1CCCO1)*; X3 = O=C([C@@H]1CCOC1)*; X7 = O=C([C@H]1CCOC1)*; X9 = O=C(c1ccc(O)nc1)*; X6 = O=C(c1ccoc1)*

The term Kb denotes the equilibrium dissociation constant of an antagonist, usually derived from a functional assay.

Take `CC(C)C[C@H](NC(=O)[C@@H](CCCCNC(=O)c1cccnc1)NC(=O)[C@H](Cc1ccc(O)cc1)N(C)C(=O)[C@H](CO)NC(=O)[C@@H](Cc1cccnc1)NC(=O)[C@@H](Cc1ccc(Cl)cc1)NC(=O)[C@@H](Cc1ccc2ccccc2c1)NC(=O)[C@@H]1CCCO1)C(=O)N[C@@H](CCCCNC(C)C)C(=O)N1CCC[C@H]1C(=O)N[C@H](C)C(N)=O` [Example 67, N-(S)-Tetrahydrofur-2-oyl-D2Nal-D4ClPhe-D3Pal-Ser-NMeTyr-DLys(Nic)-Leu-Lys(Isp)-Pro-DAlaNH2] (X1-[d2Nal][dPhe(4-Cl)][d3Pal]S[NMeY][dK](Nicotinoyl)L[Lys(iPr)]P[dA]-NH2): the Kb is 0.0251 nM.

As for `CC(C)C[C@H](NC(=O)[C@@H](CCCCNC(=O)c1cccnc1)NC(=O)[C@H](Cc1ccc(O)cc1)N(C)C(=O)[C@H](CO)NC(=O)[C@@H](Cc1cccnc1)NC(=O)[C@@H](Cc1ccc(Cl)cc1)NC(=O)[C@@H](Cc1ccc2ccccc2c1)NC(=O)[C@H]1CCCO1)C(=O)N[C@@H](CCCCNC(C)C)C(=O)N1CCC[C@H]1C(=O)N[C@H](C)C(N)=O` [Example 68, N-(R)-Tetrahydrofur-2-oyl-D2Nal-D4ClPhe-D3Pal-Ser-NMeTyr-DLys(Nic)-Leu-Lys(Isp)-Pro-DAlaNH2] ({Tetrahydrofuroyl(2R)}-[d2Nal][dPhe(4-Cl)][d3Pal]S[NMeY][dK](Nicotinoyl)L[Lys(iPr)]P[dA]-NH2), the Kb is 0.0141 nM. For `CC(C)C[C@H](NC(=O)[C@@H](CCCCNC(=O)c1cccnc1)NC(=O)[C@H](Cc1ccc(O)cc1)N(C)C(=O)[C@H](CO)NC(=O)[C@@H](Cc1cccnc1)NC(=O)[C@@H](Cc1ccc(Cl)cc1)NC(=O)[C@@H](Cc1ccc2ccccc2c1)NC(=O)[C@H]1CCOC1)C(=O)N[C@@H](CCCCNC(C)C)C(=O)N1CCC[C@H]1C(=O)N[C@H](C)C(N)=O` [Example 69, N-(S)-Tetrahydrofur-3-oyl-D2Nal-D4ClPhe-D3Pal-Ser-NMeTyr-DLys(Nic)t-Leu-Lys(Isp)-Pro-DAlaNH2] (X7-[d2Nal][dPhe(4-Cl)][d3Pal]S[NMeY][dK](Nicotinoyl)L[Lys(iPr)]P[dA]-NH2) the value was 0.02 nM; for `CC(C)C[C@H](NC(=O)[C@@H](CCCCNC(=O)c1cccnc1)NC(=O)[C@H](Cc1ccc(O)cc1)N(C)C(=O)[C@H](CO)NC(=O)[C@@H](Cc1cccnc1)NC(=O)[C@@H](Cc1ccc(Cl)cc1)NC(=O)[C@@H](Cc1ccc2ccccc2c1)NC(=O)[C@@H]1CCOC1)C(=O)N[C@@H](CCCCNC(C)C)C(=O)N1CCC[C@H]1C(=O)N[C@H](C)C(N)=O` [Example 70, N-(R)-Tetrahydrofur-3-oyl-D2Nal-D4ClPhe-D3Pal-Ser-NMeTyr-DLys(Nic)-Leu-Lys(Isp)-Pro-DAlaNH2] (X3-[d2Nal][dPhe(4-Cl)][d3Pal]S[NMeY][dK](Nicotinoyl)L[Lys(iPr)]P[dA]-NH2), 0.0126 nM; for `CC(C)C[C@H](NC(=O)[C@@H](CCCCNC(=O)c1cccnc1)NC(=O)[C@H](Cc1ccc(O)cc1)N(C)C(=O)[C@H](CO)NC(=O)[C@@H](Cc1cccnc1)NC(=O)[C@@H](Cc1ccc(Cl)cc1)NC(=O)[C@@H](Cc1ccc2ccccc2c1)NC(=O)C1=C[C@@H](O)[C@@H](O)[C@H](O)C1)C(=O)N[C@@H](CCCCNC(C)C)C(=O)N1CCC[C@H]1C(=O)N[C@H](C)C(N)=O` [Example 71, N-Shikimyl-D2Nal-D4ClPhe-D3Pal-Ser-NMeTyr-DLys(Nic)-Leu-Lys(Isp)-Pro-DAlaNH2] (Shikimoyl-[d2Nal][dPhe(4-Cl)][d3Pal]S[NMeY][dK](Nicotinoyl)L[Lys(iPr)]P[dA]-NH2), 0.00708 nM. For `CC(C)C[C@H](NC(=O)[C@@H](CCCCNC(=O)c1cccnc1)NC(=O)[C@H](Cc1ccc(O)cc1)N(C)C(=O)[C@H](CO)NC(=O)[C@@H](Cc1cccnc1)NC(=O)[C@@H](Cc1ccc(Cl)cc1)NC(=O)[C@@H](Cc1ccc2ccccc2c1)NC(=O)c1ccco1)C(=O)N[C@@H](CCCCNC(C)C)C(=O)N1CCC[C@H]1C(=O)N[C@H](C)C(N)=O` [Example 72a, N-2-Furoyl-D2Nal-D4ClPhe-D3Pal-Ser-NMeTyr-DLys(Nic)-Leu-Lys(Isp)-Pro-DAlaNH2] (2Furoyl-[d2Nal][dPhe(4-Cl)][d3Pal]S[NMeY][dK](Nicotinoyl)L[Lys(iPr)]P[dA]-NH2) the value was 0.01 nM; for `CC(C)C[C@H](NC(=O)[C@@H](CCCCNC(=O)c1cccnc1)NC(=O)[C@H](Cc1ccc(O)cc1)N(C)C(=O)[C@H](CO)NC(=O)[C@@H](Cc1cccnc1)NC(=O)[C@@H](Cc1ccc(Cl)cc1)NC(=O)[C@@H](Cc1ccc2ccccc2c1)NC(=O)c1ccoc1)C(=O)N[C@@H](CCCCNC(C)C)C(=O)N1CCC[C@H]1C(=O)N[C@H](C)C(N)=O` [Example 72b, N-3-Furoyl-D2Nal-D4ClPhe-D3Pal-Ser-NMeTyr-DLys(Nic)-Leu-Lys(Isp)-Pro-DAlaNH2] (X6-[d2Nal][dPhe(4-Cl)][d3Pal]S[NMeY][dK](Nicotinoyl)L[Lys(iPr)]P[dA]-NH2), 0.0851 nM; for `CC(C)C[C@H](NC(=O)[C@@H](CCCCNC(=O)c1cccnc1)NC(=O)[C@H](Cc1ccc(O)cc1)N(C)C(=O)[C@H](CO)NC(=O)[C@@H](Cc1cccnc1)NC(=O)[C@@H](Cc1ccc(Cl)cc1)NC(=O)[C@@H](Cc1ccc2ccccc2c1)NC(=O)c1cccs1)C(=O)N[C@@H](CCCCNC(C)C)C(=O)N1CCC[C@H]1C(=O)N[C@H](C)C(N)=O` [Example 72c, N-Thienyl-2-carbonyl-D2Nal-D4ClPhe-D3Pal-Ser-NMeTyr-DLys(Nic)-Leu-Lys(Isp)-Pro-DAlaNH2] (Thiophene2carbonyl-[d2Nal][dPhe(4-Cl)][d3Pal]S[NMeY][dK](Nicotinoyl)L[Lys(iPr)]P[dA]-NH2), 0.02 nM. The result for `CC(C)C[C@H](NC(=O)[C@@H](CCCCNC(=O)c1cccnc1)NC(=O)[C@H](Cc1ccc(O)cc1)N(C)C(=O)[C@H](CO)NC(=O)[C@@H](Cc1cccnc1)NC(=O)[C@@H](Cc1ccc(Cl)cc1)NC(=O)[C@@H](Cc1ccc2ccccc2c1)NC(=O)c1cccnc1)C(=O)N[C@@H](CCCCNC(C)C)C(=O)N1CCC[C@H]1C(=O)N[C@H](C)C(N)=O` [Example 72d, N-Nicotinyl-D2Nal-D4ClPhe-D3Pal-Ser-NMeTyr-DLys(Nic)-Leu-Lys(Isp)-Pro-DAlaNH2] (Nicotinoyl-[d2Nal][dPhe(4-Cl)][d3Pal]S[NMeY][dK](Nicotinoyl)L[Lys(iPr)]P[dA]-NH2) reads 0.00871 nM.

Regarding `CC(C)C[C@H](NC(=O)[C@@H](CCCCNC(=O)c1cccnc1)NC(=O)[C@H](Cc1ccc(O)cc1)N(C)C(=O)[C@H](CO)NC(=O)[C@@H](Cc1cccnc1)NC(=O)[C@@H](Cc1ccc(Cl)cc1)NC(=O)[C@@H](Cc1ccc2ccccc2c1)NC(=O)c1ccccn1)C(=O)N[C@@H](CCCCNC(C)C)C(=O)N1CCC[C@H]1C(=O)N[C@H](C)C(N)=O` [Example 72e, N-Picolinoyl-D2Nal-D4ClPhe-D3Pal-Ser-NMeTyr-DLys(Nic)-Leu-Lys(Isp)-Pro-DAlaNH2] (Picolinoyl-[d2Nal][dPhe(4-Cl)][d3Pal]S[NMeY][dK](Nicotinoyl)L[Lys(iPr)]P[dA]-NH2), the Kb is 0.0141 nM. The result for `CC(C)C[C@H](NC(=O)[C@@H](CCCCNC(=O)c1cccnc1)NC(=O)[C@H](Cc1ccc(O)cc1)N(C)C(=O)[C@H](CO)NC(=O)[C@@H](Cc1cccnc1)NC(=O)[C@@H](Cc1ccc(Cl)cc1)NC(=O)[C@@H](Cc1ccc2ccccc2c1)NC(=O)c1ccc(O)nc1)C(=O)N[C@@H](CCCCNC(C)C)C(=O)N1CCC[C@H]1C(=O)N[C@H](C)C(N)=O` [Example 72f, N-(6-Hydroxy)nicotinyl-D2Nal-D4ClPhe-D3Pal-Ser-NMeTyr-DLys(Nic)-Leu-Lys(Isp)-Pro-DAlaNH2] (X9-[d2Nal][dPhe(4-Cl)][d3Pal]S[NMeY][dK](Nicotinoyl)L[Lys(iPr)]P[dA]-NH2) reads 0.01 nM; that for `CC(C)C[C@H](NC(=O)[C@@H](CCCCNC(=O)c1cccnc1)NC(=O)[C@H](Cc1ccc(O)cc1)N(C)C(=O)[C@H](CO)NC(=O)[C@@H](Cc1cccnc1)NC(=O)[C@@H](Cc1ccc(Cl)cc1)NC(=O)[C@@H](Cc1ccc2ccccc2c1)NC(=O)c1ccncc1)C(=O)N[C@@H](CCCCNC(C)C)C(=O)N1CCC[C@H]1C(=O)N[C@H](C)C(N)=O` [Example 72g, N-Isonicotinyl-D2Nal-D4ClPhe-D3Pal-Ser-NMeTyr-DLys(Nic)-Leu-Lys(Isp)-Pro-DAlaNH2] (Isonicotinoyl-[d2Nal][dPhe(4-Cl)][d3Pal]S[NMeY][dK](Nicotinoyl)L[Lys(iPr)]P[dA]-NH2), 0.02 nM. The result for `CC(C)C[C@H](NC(=O)[C@@H](CCCCNC(=O)c1cccnc1)NC(=O)[C@H](Cc1ccc(O)cc1)N(C)C(=O)[C@H](CO)NC(=O)[C@@H](Cc1cccnc1)NC(=O)[C@@H](Cc1ccc(Cl)cc1)NC(=O)[C@@H](Cc1ccc2ccccc2c1)NC(=O)Cc1cccnc1)C(=O)N[C@@H](CCCCNC(C)C)C(=O)N1CCC[C@H]1C(=O)N[C@H](C)C(N)=O` [Example 72h, N-(3-Pyridylacetyl)-D2Nal-D4ClPhe-D3Pal-Ser-NMeTyr-DLys(Nic)-Leu-Lys(Isp)- Pro-DAlaNH2] ({Acetyl(3-pyridyl)}-[d2Nal][dPhe(4-Cl)][d3Pal]S[NMeY][dK](Nicotinoyl)L[Lys(iPr)]P[dA]-NH2) reads 0.00631 nM. The result for `CC(C)C[C@H](NC(=O)[C@@H](CCCCNC(=O)c1cccnc1)NC(=O)[C@H](CCCCNC(=O)c1cccnc1)NC(=O)[C@H](CO)NC(=O)[C@@H](Cc1cccnc1)NC(=O)[C@@H](Cc1ccc(Cl)cc1)NC(=O)[C@@H](Cc1ccc2ccccc2c1)NC(=O)C1=C[C@@H](O)[C@@H](O)[C@H](O)C1)C(=O)N[C@@H](CCCCNC(C)C)C(=O)N1CCC[C@H]1C(=O)N[C@H](C)C(N)=O` [Example 73, N-Shikimyl-D2Nal-D4ClPhe-D3Pal-Ser-Lys(Nic)-DLys(Nic)-Leu-Lys(Isp)-Pro-DAlaNH2] (Shikimoyl-[d2Nal][dPhe(4-Cl)][d3Pal]SK(Nicotinoyl)[dK](Nicotinoyl)L[Lys(iPr)]P[dA]-NH2) reads 0.0447 nM.

Source of the values: patent US5502035A, “N-terminus modified analogs of LHRH” (Tap Holdings Inc., priority 1994, dated 1996).
